Assay results: patent US20130296539A1, “MAGNETIC RESONANCE IMAGING AGENTS FOR CALCIFICATION” (priority 2012, published 2013)

Legend:
[1] = In-vitro UTE and GRE MRI of HA crystals bound by contrast agent; conditions: short incubation with HA crystals in PBS, UTE sequence TR=200 msec, TE=100 μsec
Experimental: (§1) MRI can be performed on a 1.5 T GE Signa clinical scanner equipped with a custom low-pass birdcage coil (10 cm length, 6 cm diameter). The custom UTE sequence is based on previous work in the field {Irarrazabal, 1995; Song, 1998}.
1 mM of [Gd^3+-DOTA]-Thr-Pam-Na is added to 5 mg of HA crystals in 50 μL PBS (pH 7.4) and is vortexed for 1 h at RT in a 1.5 mL Eppendorf tube. 5 mg HA in 1 mM of [Gd^3+-DOTA]-Thr and 50 μL PBS is used as a control. MRI, pre- and post-washing with 4×500 μL PBS, are acquired using an UTE sequence (TR=200 msec, TE=100 μsec) or conventional GRE sequence (TR=200 msec, TE=1.8 msec). Other acquisition parameters includes FOV=6 cm, slice thickness=5 mm, matrix size=256×256, NEX=4.

[2] = Contrast agent concentration and TR dependence of UTE MRI signals; conditions: 5 mg HA, 1 h at RT, washed with PBS, UTE MRI TE=100 μsec
Experimental: as §1
5 mg HA is placed in 1.5 mL plastic Eppendorf tubes, then 0, 0.1, 1, 10, or 100 μM [Gd^3+-DOTA]-Thr-Pam-Na in 50 μL PBS is added to each. After vortexing 1 h at RT, the crystals are washed with 4×500 μL PBS and UTE MRI acquisition is performed using a fixed TE=100 μsec and varying TR of 17, 50, 200, 500 msec. Other acquisition parameters includes FOV=11 cm, slice thickness=10 mm, matrix size=256×256, NEX=2.

[3] = Quantitation of calcium salt specificity by UTE MRI; conditions: 10 μM in PBS, 1 h at RT, UTE MRI before and after washing crystals
Experimental: as §1
5 mg of HA or the phosphate, oxalate, carbonate, or pyrophosphate salts of calcium is placed in 1.5 ml Eppendorf tube and is incubated with 10 μM [Gd^3+-DOTA]-Thr-Pam-Na in 50 μL PBS for 1 h at RT with continuous vortexing. UTE MRI acquisition is performed pre- and post-washing with 4×500 μL PBS using TR=200 msec and TE=100 μsec. Other acquisition parameters includes FOV=9 cm, slice thickness=10 mm, matrix size=256×256, NEX=2.

[4] = In-vivo UTE MRI of subcutaneously implanted HA crystals; conditions: mice, intravenous injection, minimum of 4 h of clearance; compared with microCT
Experimental: as §1
50 mg of HA crystals is taken in 300 μL PBS, is implanted subcutaneously at right flank of anesthetized mice. UTE MRI is taken after implantation of HA crystal using TR/TE=200 msec/100 μsec, FOV=6 cm, slice thickness=5 mm, matrix size=256×256. 4 μmol of [Gd^3+-DOTA]-Thr-Pam-Na in 300 μL saline is injected intravenously. After 4 h of clearance, an UTE MRI is taken with same parameters.

Substance: [Gd^3+-DOTA]-Thr-Pam-Na
- Detection of HA crystals by UTE MRI [1]: able to detect HA crystals with high sensitivity
- Lowest incubation concentration resulting in detectable signal enhancement [2]: 1 µM
- Specificity for HA over other calcium salts [3]: more than three fold higher specificity for HA over other calcium salts
- In-vivo detection of HA crystals by UTE MRI [4]: UTE MRI provides a sensitive detection of HA crystals in-vivo
